Patent publication US20250360505A1, “MICRO-BIOELECTROCHEMICAL CELL DEVICES AND METHODS OF DETECTING ELECTRON FLOWS” (Washington University, priority 2019, published 2025)

Test system: Rhodopseudomonas palustris TIE-1 wild-type biofilms
Experiment: μ-BEC current density measurement of extracellular electron uptake (EEU) by surface-attached biofilms treated with photosynthetic ETC inhibitors
Assay type: cell-based
Conditions: working electrode poised at +100 mV vs. SHE, inhibitor concentration not given
[1] = illuminated (phototrophic) conditions

Molecule | Current density (dark conditions) | Current density [1]
antimycin A | −3.46±1.80 nA cm^−2 | 12.46±1.34 nA cm^−2
N#CC(C#N)=NNc1cccc(Cl)c1 [CCCP, carbonyl cyanide m-chlorophenyl hydrazone] | −18.4±14.0 nA cm^−2 | 21.2±9.13 nA cm^−2
